{"source": "patent US20020013300A1", "about": "“Methods for improving size and appearance of a wound” (Avocet Polymer Technologies, Inc., priority 2000, published 2002)", "assay_type_in_all_cases": "in vivo, human patient", "key": {"hypertrophic scar [1]": {"test_system": "hypertrophic scar", "test": "Example 2, Patient three: treatment of a tender hypertrophic facial scar", "conditions": "7 weeks", "source_text": "The patient's chief complaint was irritation with daily grooming and itching from scars located on the face. The patient underwent a medical history and physical examination. […] Clinical progress was followed using photographic and ultrasound imaging as well as a patient self-report. […] Color changes were documented by photographs. Ultrasound images documented the scar size change."}, "hypertrophic scar [2]": {"test_system": "hypertrophic scar", "test": "Example 3, Patient 25: treatment of an irritated hypertrophic forearm scar", "experimental": "The patient's chief complaint was an irritated scar of the forearm for more than two years. The patient underwent a medical history and physical examination. On examination, a raised irregularly contoured errythematous hypertrophic scar was observed. Materials and Methods: After review of clinical options, the patient was prescribed nabumetone for 4 weeks. […] The combination of nabumetone and hydrogel was used for 15-18 hours each day for a period of 8 weeks. Clinical progress was followed using photographic imaging as well as patient self-report."}, "post-operative scar": {"test_system": "post-operative scar", "test": "Example 4, Patient two: treatment of a raised post-operative leg scar", "experimental": "The patient's chief complaint was difficulty sleeping or resting because of a post-operative orthopoedic right leg scar that was irritated and raised. The patient underwent a medical history and physical examination. Notable medication use was a 325 mg tablet of acetylsalicylic acid orally administered to prevent thrombo-embolic post-operative complications. On examination, a 15 cm raised erythematous post-operative scar of 15 cm length and approximately 3 mm width was noted, with exquisite sensitivity to examination and evidence of excoriation. At the time of exam, the patient denied itching. […] To avoid the use of adhesives, an ace wrap bandage was used to hold the gel—salicylic acid combination in place. Gel plus salicylic acid co-administration was monitored by a daily patient diary. Photographs and patient self report were used to assess treatment results. Itching complaints were followed using a 10 point itching scale. Pre-treatment itching scale was entered as 0, reflecting onset of aspirin use prior therapy. RESULTS: Compliance with treatment regimen was documented daily. […] Itching symptoms were reported at 0."}, "[3]": {"test_system": "post-operative caesarean section scar", "test": "Example 5, Patient one: treatment of an itchy caesarean section scar", "source_text": "The patient's chief complaint was a burning itchy sensation in a closed post-operative caesarean section scar. The patient underwent a medical history and physical examination. On examination, an 18 cm irritated lower abdominal vertical healed incision was noted, with evidence of excoriation. […] To avoid the use of adhesives, a control top stretch panty was used to hold the gel—salicylic acid combination in place. Gel plus salicylic acid co-administration was monitored by a daily patient diary. Photographs and patient self report were followed to assess treatment results. Itching complaints were followed using a 10 point itching scale. Pre-treatment itching scale was entered as 6, with the comment that itching bothered the patient “severely, badly.” RESULTS: Compliance with treatment regimen was documented daily. […] On examination, the scar contours appeared to have become more regular and scar color faded."}, "[4]": {"conditions": "nabumetone, then nabumetone + hydrogel 8 weeks"}, "[5]": {"conditions": "2% salicylic acid under hydrogel, 12 weeks"}, "[6]": {"conditions": "2% salicylic acid under hydrogel"}}, "data": [{"compound": "COc1ccc2cc(CCC(C)=O)ccc2c1", "note": "[nabumetone, 4-(6-methoxy-2-naphthalenyl)-2-butanone]", "values": [{"measurement": "patient self-report", "setting": "hypertrophic scar [1]; nabumetone + hydrogel", "result": "improved comfort"}, {"measurement": "redness and tenderness on exam", "setting": "hypertrophic scar [1]; nabumetone + hydrogel", "result": "less redness and tenderness"}, {"measurement": "scar color (photographs)", "setting": "hypertrophic scar [1]; nabumetone + hydrogel", "result": "revert to a color tone more closely matching adjacent skin"}, {"measurement": "reduction in scar size (examination, ultrasound)", "setting": "hypertrophic scar [1]; oral nabumetone 250-500 mg daily co-administered with AVOGEL hydrogel sheeting 15-18 h/day", "result": 50, "unit": "%"}, {"measurement": "irregular contours", "setting": "hypertrophic scar [2]; [4]", "result": "faded"}, {"measurement": "patient self-report", "setting": "hypertrophic scar [2]; [4]", "result": "improved comfort"}, {"measurement": "scar color on examination", "setting": "hypertrophic scar [2]; [4]", "result": "reverted in color to skin tones closely matching adjacent skin"}, {"measurement": "scar height on examination", "setting": "hypertrophic scar [2]; oral nabumetone 250 mg daily 4 weeks, then with AVOGEL hydrogel sheeting 15-18 h/day for 8 weeks", "result": "became flatter"}, {"measurement": "scar visibility on photographic documentation", "setting": "hypertrophic scar [2]; treatment day 60", "result": "not observable"}]}, {"compound": "O=C(O)c1ccccc1O", "note": "[salicylic acid]", "values": [{"measurement": "shortened measure of the scar, scar contracture (photographs)", "setting": "post-operative scar; 2% salicylic acid topically under AVOGEL hydrogel 15-18 h/day, 12 weeks, patient also on oral acetylsalicylic acid 325 mg", "result": 25, "unit": "%"}, {"measurement": "evidence of itching or irritation on examination", "setting": "post-operative scar; [5]", "result": "No evidence of itching or irritation"}, {"measurement": "patient report", "setting": "post-operative scar; [5]", "result": "improved sleep with reduction in scar irritation"}, {"measurement": "scar color on examination", "setting": "post-operative scar; [5]", "result": "lighter than in pre-treatment"}, {"measurement": "scar contours on examination", "setting": "post-operative scar; [5]", "result": "flattened"}, {"measurement": "itching symptoms (itching scale)", "setting": "post-operative scar; 10 point scale, pre-treatment entered as 0 (aspirin use prior to therapy)", "result": 0}, {"measurement": "redness and local irritation at scar site (photographs)", "setting": "[3]; 2% salicylic acid topically under AVOGEL hydrogel 15-18 h/day, 12 weeks", "result": "reduced redness and local irritation"}, {"measurement": "evidence of itching or irritation on examination", "setting": "[3]; [6]", "result": "No evidence of itching or irritation"}, {"measurement": "scar color on examination", "setting": "[3]; [6]", "result": "faded"}, {"measurement": "scar contours on examination", "setting": "[3]; [6]", "result": "more regular"}, {"measurement": "itching symptoms (itching scale)", "setting": "[3]; 10 point scale, 4th week of treatment, pre-treatment 6", "result": 3}, {"measurement": "scar irritation and pruritis", "setting": "[3]; end of treatment after 20 weeks", "result": "reduced to infrequent"}]}]}
